Results as given in patent publication US11672842B2, “Gonadotropin-releasing hormones for use as adjuvant immunotherapeutics” (ISR IMMUNE SYSTEM REGULATION HOLDING AB (PUBL), priority 2017, dated 2023).
[ ]: non-standard residue; d: D form. pGlu = O=C1CC[C@@H](C(=O)O)N1

Tests used:
[1] = test system: CD4+ and CD8+ T cells (PBMCs from a healthy donor); assay: MHC class I expression after stimulation of T cells with GnRH II (FIG. 1); assay type: cell-based, human; conditions: GnRH II and IL-2 for 72 hours, flow cytometry
Procedure: FIG. 1: Expression of MHC class I after stimulation of T cells with increasing concentrations of GnRH II. PBMCs from a healthy donor was stimulated with GnRH II and IL-2 for 72 hours. Data points represent mean fluorescent intensity of MCH class I expression on CD4^+ T cells (blue triangles) or CD8^+ T cells (black squares) measured with flow cytometry.

CD4+ T-lymphocytes = conditions: BB rats exhibiting an AIDS-like lymphocyte profile; cited from earlier work
[2] = Open-label phase IIa clinical study: safety and tolerability; assay type: in vivo, human
Source text: The study outline is depicted in FIG. 3.

Q: For “pyroGlu-His-Trp-Ser-His-Gly-Trp-Tyr-Pro-Gly-NH2 ([pGlu]HWSHGWYPG-NH2; SMILES NC(=O)CNC(=O)[C@@H]1CCCN1C(=O)[C@H](Cc1ccc(O)cc1)NC(=O)[C@H](Cc1c[nH]c2ccccc12)NC(=O)CNC(=O)[C@H](Cc1c[nH]cn1)NC(=O)[C@H](CO)NC(=O)[C@H](Cc1c[nH]c2ccccc12)NC(=O)[C@H](Cc1c[nH]cn1)NC(=O)[C@@H]1CCC(=O)N1) [GnRH II, second, non-hypothalamic form of GnRH]”, which “MHC class I expression on T cells” value [1] is on record?
A: The value was “stimulates MHC class I expression”.

Q: With “pyroGlu-His-Trp-Ser-Tyr-Gly-Leu-Arg-Pro-Gly-NH2 (EHWSYGLRPG; N-terminal pyroglutamate, C-terminal amide; printed: Glu-His-Trp-Ser-Tyr-Gly-Leu-Arg-Pro-Gly-) [GnRH I, decapeptide hormone]” as the compound, how does the “CD4+ T-lymphocyte numbers” value (CD4+ T-lymphocytes) read?
A: The value was “increased”.

Q: Which “Any AE affecting impotence, % of patients” value ([2]; Safety (n = 26)) does the source give for `CCNC(=O)[C@@H]1CCCN1C(=O)[C@H](CCCNC(=N)N)NC(=O)[C@H](CC(C)C)NC(=O)[C@@H](COC(C)(C)C)NC(=O)[C@H](Cc1ccc(O)cc1)NC(=O)[C@H](CO)NC(=O)[C@H](Cc1c[nH]c2ccccc12)NC(=O)[C@H](Cc1cnc[nH]1)NC(=O)[C@@H]1CCC(=O)N1` [buserelin acetate] here?
A: The value was “(23.1%)”.

Q: And the “Any AE affecting libido, % of patients” value ([2]; Safety (n = 26))?
A: Its value is “(30.8%)”.

Q: What about the “Any AE leading to discontinuation, % of patients” value ([2]; Safety (n = 26)) of the same compound?
A: The value was “(3.8%)”.

Q: And the “Any AE, % of patients” value ([2]; Safety (n = 26))?
A: The value was “(100.0%)”.

Q: And the “Any SAE, % of patients” value ([2]; Safety (n = 26))?
A: The value was “(0.0%)”.

Q: What about the “Any treatment-related AE, % of patients” value ([2]; Safety (n = 26)) of the same compound?
A: Its value is “(65.4%)”.

Q: What about the “Any treatment-related SAE, % of patients” value ([2]; Safety (n = 26)) of the same compound?
A: The value was “(0.0%)”.

Q: And the “Death, % of patients” value ([2]; Safety (n = 26))?
A: The value was 0.0%.

Q: What about the “grading of adverse events” value ([2]; in words) of the same compound?
A: Its value is “All adverse events except one was graded as mild”.

Q: And the “overall safety and tolerability of the treatment” value ([2]; in words)?
A: Its value is “safe and well-tolerated”.

Q: And the “serious adverse events (SAEs) during the study” value ([2]; in words)?
A: The value was “no serious adverse events”.
